From US12551459B2, “Combination of kynurenine and antigen presenting cells (APC) as therapeutics and methods for their use in immune modulation” (THE UNIVERSITY OF BRITISH COLUMBIA, priority 2014, dated 2026)

Assays:
[1] = test system: C3H/HeJ mice induced to develop alopecia areata (AA); test: Prevention of alopecia areata in C3H/HeJ mice by fibroblast + kynurenine treatment; assay type: in vivo
Description: Prevention of alopecia areata by combination fibroblast+kynurenine treatment: C3H/HeJ mice were induce to develop alopecia areata (AA) by intradermal injection of lymph node cells from AA affected mice. These mice (5 per group) then received either no treatment, a single-dose injection of 2×10^6 unmodified primary dermal fibroblasts to peritoneal cavity, oral kynurenine (added to drinking water, 100 μg/mL), or a combination therapy consisting of a) single-dose injection of 2×10^6 unmodified primary dermal fibroblasts to peritoneal cavity and b) oral kynurenine (added to drinking water, 100 μg/mL).

[2] = parameters: species or system mice; details: NOD (non-obese diabetic), mouse, in vivo, sc
Description: Non-obese diabetic (NOD) mice were intraperitoneal (IP) injected with normal fibroblasts (non-IDO-expressing, 2×10^7 cells per mouse) at the onset of hyperglycemia. Following IP fibroblast injection, the mice were given daily subcutaneous DL-kynurenine injections (20 μg/mouse). The blood glucose levels were monitored twice a week. For the controls, mice were either given only the IP fibroblast injection, or only the daily subcutaneous kynurenine injections as set out above, or were give no treatment at all.
Furthermore, in mouse 1 and mouse 2 (shown in FIG. 1) the subcutaneous kynurenine injections were stopped at 119 and 77 days post IP fibroblast injection, respectively, without a subsequent increase in blood glucose above 10 mM. Kyn injections were done daily because it was cleared from the blood within 8-10 hours. Glucose levels were monitored for up to 120 days, but control groups were sacrificed at earlier time points due to a high level of glucose and prevent the mice from suffering.

[3] = after 120 days, of Total mice per group

SMILES	hair loss pattern after 120 days ([1]; FIG. 4A)	AA (number of mice with alopecia areata) [1, 3]	Normal (number of mice) [1, 3]	Prevention (%) ([1]; prevention of AA)	cleared from the blood within [2] [h]
Nc1ccccc1C(=O)CC(N)C(=O)O (centres unmarked) [FS1 alone, kynurenine]	some hair growth	4	1	20	–
Nc1ccccc1C(=O)CC(N)C(=O)O (racemic) [Kyn, DL-kynurenine]	–	–	–	–	8 to 10
